These results are taken from patent US20180237441A1, “Chemical Compounds” (GlaxoSmithKline Intellectual Property (No.2) Limited, priority 2015, published 2018).

The target in one assay is T1, PERK (Homo sapiens, UniProt Q9NZJ5).
T1 sequence (Q9NZJ5 30-1116): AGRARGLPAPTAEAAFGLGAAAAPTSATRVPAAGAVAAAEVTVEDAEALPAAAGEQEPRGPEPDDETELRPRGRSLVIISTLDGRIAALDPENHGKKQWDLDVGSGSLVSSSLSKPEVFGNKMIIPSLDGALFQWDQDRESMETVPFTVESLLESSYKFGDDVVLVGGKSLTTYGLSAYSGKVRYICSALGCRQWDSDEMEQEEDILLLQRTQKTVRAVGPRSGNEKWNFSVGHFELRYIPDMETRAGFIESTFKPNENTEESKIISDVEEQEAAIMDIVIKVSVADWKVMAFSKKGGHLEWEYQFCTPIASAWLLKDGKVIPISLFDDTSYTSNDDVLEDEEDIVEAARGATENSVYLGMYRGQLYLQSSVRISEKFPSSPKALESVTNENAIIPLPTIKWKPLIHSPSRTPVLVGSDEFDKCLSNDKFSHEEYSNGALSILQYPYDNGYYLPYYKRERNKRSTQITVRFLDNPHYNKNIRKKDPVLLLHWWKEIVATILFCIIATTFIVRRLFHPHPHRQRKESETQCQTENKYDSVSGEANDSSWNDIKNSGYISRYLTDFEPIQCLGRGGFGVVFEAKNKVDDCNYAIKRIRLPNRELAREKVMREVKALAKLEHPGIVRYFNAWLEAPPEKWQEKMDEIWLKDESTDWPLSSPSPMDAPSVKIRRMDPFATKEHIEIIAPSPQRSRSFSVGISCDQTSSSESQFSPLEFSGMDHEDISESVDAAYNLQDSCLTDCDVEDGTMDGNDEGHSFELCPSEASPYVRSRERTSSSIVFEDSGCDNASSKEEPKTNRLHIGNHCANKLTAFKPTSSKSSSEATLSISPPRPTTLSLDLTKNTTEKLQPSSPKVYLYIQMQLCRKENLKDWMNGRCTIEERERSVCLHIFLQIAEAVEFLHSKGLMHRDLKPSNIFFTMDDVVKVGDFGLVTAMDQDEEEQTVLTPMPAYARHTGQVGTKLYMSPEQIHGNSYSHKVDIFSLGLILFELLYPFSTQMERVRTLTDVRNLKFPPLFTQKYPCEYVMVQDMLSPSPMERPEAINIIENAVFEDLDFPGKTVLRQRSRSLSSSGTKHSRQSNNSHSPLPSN
In words: PERK enzyme assay (HTRF). The following applies: 500 μM ATP; at least one experimental run; read-out: PERK Enzyme (500 μM ATP) IC50. The assay is classed as biochemical. The method in brief: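 HTRF read-out after 2 h of EDTA-quenched reactions, detecting phospho-eIF2α with Eu/APC reagents, gave IC50 values. Reaction: 0.75 nM GST-PERK, 30–60 min compound pre-incubation (max 1% DMSO), then 60 min with 40 nM biotin-eIF2α and 500 μM ATP, HEPES pH 7.5 buffer.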
A general note: Time-resolved FRET reads energy transfer from a long-lived donor to a nearby acceptor.
Turning to `CN1C(=O)N(c2ccc(-c3cn(C)c4ncnc(N)c34)c(F)c2)CC1c1ccc(F)c(F)c1` (single isomer, unassigned) [Example 115, 1-(4-(4-amino-7-methyl-7H-pyrrolo[2,3-d]pyrimidin-5-yl)-3-fluorophenyl)-4-(3,4-difluorophenyl)-3-methylimidazolidin-2-one], the IC50 stood at 2.4 nM.
Still for that read-out and setting: in the case of `CN1C(=O)N(c2ccc(-c3cn(C)c4ncnc(N)c34)c(F)c2)CC1c1cc(F)cc(F)c1` (single isomer, unassigned) [Example 100, 1-(4-(4-amino-7-methyl-7H-pyrrolo[2,3-d]pyrimidin-5-yl)-3-fluorophenyl)-4-(3,5-difluorophenyl)-3-methylimidazolidin-2-one] it was 3 nM.
As for `CN1C(=O)N(c2ccc(-c3cn(C)c4ncnc(N)c34)c(Cl)c2)CC1c1cc(F)cc(F)c1` (single isomer, unassigned) [Example 127, 1-(4-(4-amino-7-methyl-7H-pyrrolo[2,3-d]pyrimidin-5-yl)-3-chlorophenyl)-4-(3,5-difluorophenyl)-3-methylimidazolidin-2-one], the IC50 amounted to 6.1 nM.
On the same count and under the same terms, in the case of `CC(C)n1cc(-c2ccc(N3CC(c4ccc(F)cc4F)N(C)C3=O)cc2F)c2c(N)ncnc21` (centres unmarked) [Example 92, 1-(4-(4-amino-7-isopropyl-7H-pyrrolo[2,3-d]pyrimidin-5-yl)-3-fluorophenyl)-4-(2,4-difluorophenyl)-3-methylimidazolidin-2-one] it was 351 nM.

The assay is the same for the next values; noted with them: PERK Enzyme (500 μM ATP) IC50; at least one experimental run; read-out: PERK Activity.
As to `CN1C(=O)N(c2ccc(-c3cn(C)c4ncnc(N)c34)c(F)c2)CC1c1ccc(F)c(F)c1` (single isomer, unassigned) [Example 115, 1-(4-(4-amino-7-methyl-7H-pyrrolo[2,3-d]pyrimidin-5-yl)-3-fluorophenyl)-4-(3,4-difluorophenyl)-3-methylimidazolidin-2-one], the IC50 was less than 100 nM.
Turning to `CC(C)n1cc(-c2ccc(N3CC(c4cc(F)ccc4F)N(C)C3=O)cc2F)c2c(N)ncnc21` (single isomer, unassigned) [Example 86, 1-(4-(4-amino-7-isopropyl-7H-pyrrolo[2,3-d]pyrimidin-5-yl)-3-fluorophenyl)-4-(2,5-difluorophenyl)-3-methylimidazolidin-2-one], the IC50 fell in the range of 100 to 1000 nM.
Regarding `Cc1nc(N)c2c(-c3ccc(N4CC(c5cc(F)ccc5F)N(C)C4=O)cc3F)cn(C)c2n1` (single isomer, unassigned) [Example 37, 1-(4-(4-amino-2,7-dimethyl-7H-pyrrolo[2,3-d]pyrimidin-5-yl)-3-fluorophenyl)-4-(2,5-difluorophenyl)-3-methylimidazolidin-2-one], the IC50 was 100 to 1000 nM.
The same measure, in the same setting: in the case of `CN1C(=O)N(c2ccc(-c3cn(C)c4ncnc(N)c34)c(F)c2)CC1c1cc(F)cc(F)c1F` (centres unmarked) [Example 56, 1-(4-(4-amino-7-methyl-7H-pyrrolo[2,3-d]pyrimidin-5-yl)-3-fluorophenyl)-3-methyl-4-(2,3,5-trifluorophenyl)imidazolidin-2-one] it was 100 to 1000 nM; in that of `CN1C(=O)N(c2ccc(-c3cn(C)c4ncnc(N)c34)c(F)c2)CC1C1CCCCC1` (centres unmarked) [Example 58, 1-(4-(4-amino-7-methyl-7H-pyrrolo[2,3-d]pyrimidin-5-yl)-3-fluorophenyl)-4-cyclohexyl-3-methylimidazolidin-2-one], less than 100 nM; in that of `CN1C(=O)N(c2ccc(-c3cn(C)c4ncnc(N)c34)c(F)c2)CC1c1cc(F)cc(Cl)c1` (single isomer, unassigned) [Example 52, 1-(4-(4-amino-7-methyl-7H-pyrrolo[2,3-d]pyrimidin-5-yl)-3-fluorophenyl)-4-(3-chloro-5-fluorophenyl)-3-methylimidazolidin-2-one], 100 to 1000 nM.
Consider `CCN1C(=O)N(c2ccc(-c3cn(C)c4ncnc(N)c34)c(F)c2)CC1c1cc(F)cc(F)c1F` (centres unmarked) [Example 55, 1-(4-(4-amino-7-methyl-7H-pyrrolo[2,3-d]pyrimidin-5-yl)-3-fluorophenyl)-3-ethyl-4-(2,3,5-trifluorophenyl)imidazolidin-2-one], for which the IC50 was 100 to 1000 nM.
Take `CCN1C(=O)N(c2ccc(-c3cn(C(C)C)c4ncnc(N)c34)c(F)c2)CC1c1cc(F)ccc1F` (centres unmarked) [Example 106, 1-(4-(4-amino-7-isopropyl-7H-pyrrolo[2,3-d]pyrimidin-5-yl)-3-fluorophenyl)-4-(2,5-difluorophenyl)-3-ethylimidazolidin-2-one]: the IC50 lay within 100 to 1000 nM.
The same measure, in the same setting: next, `Cc1nc(N)c2c(-c3ccc(N4CC(c5ccc(F)c(F)c5)N(C)C4=O)cc3F)cn(C)c2n1` (centres unmarked) [Example 78, 1-(4-(4-amino-2,7-dimethyl-7H-pyrrolo[2,3-d]pyrimidin-5-yl)-3-fluorophenyl)-4-(3,4-difluorophenyl)-3-methylimidazolidin-2-one]: less than 100 nM; `CN1C(=O)N(c2ccc(-c3cn(C)c4ncnc(N)c34)c(F)c2)CC1c1ccc2c(c1)CCO2` (single isomer, unassigned) [Example 169, 1-(4-(4-amino-7-methyl-7H-pyrrolo[2,3-d]pyrimidin-5-yl)-3-fluorophenyl)-4-(2,3-dihydrobenzofuran-5-yl)-3-methylimidazolidin-2-one]: less than 100 nM.
Consider `CN1C(=O)N(c2ccc(-c3cn(C)c4ncnc(N)c34)c(F)c2)CC1C1CCCCC1` (single isomer, unassigned) [Example 63, 1-(4-(4-amino-7-methyl-7H-pyrrolo[2,3-d]pyrimidin-5-yl)-3-fluorophenyl)-4-cyclohexyl-3-methylimidazolidin-2-one], for which the IC50 is less than 100 nM.
Same read-out and setting: in the case of `CCn1cc(-c2ccc(N3CC(c4ccc(F)cc4F)N(C)C3=O)cc2F)c2c(N)nc(C)nc21` (centres unmarked) [Example 109, 1-(4-(4-amino-7-ethyl-2-methyl-7H-pyrrolo[2,3-d]pyrimidin-5-yl)-3-fluorophenyl)-4-(2,4-difluorophenyl)-3-methylimidazolidin-2-one] it was less than 100 nM.
In the case of `Cc1nc(N)c2c(-c3ccc(N4CC(c5ccc(F)cc5)N(C)C4=O)cc3F)cn(C)c2n1` (centres unmarked) [Example 69, 1-(4-(4-amino-2,7-dimethyl-7H-pyrrolo[2,3-d]pynmidin-5-yl)-3-fluorophenyl)-4-(4-fluorophenyl)-3-methylimidazolidin-2-one], the IC50 is less than 100 nM.
Turning to `Cn1cc(-c2ccc(N3CC(c4ccc(F)cc4F)N(CC(F)(F)F)C3=O)cc2F)c2c(N)ncnc21` (centres unmarked) [Example 79, 1-(4-(4-amino-7-methyl-7H-pyrrolo[2,3-d]pyrimidin-5-yl)-3-fluorophenyl)-4-(2,4-difluorophenyl)-3-(2,2,2-trifluoroethyl)imidazolidin-2-one], the IC50 was less than 100 nM.
Same read-out and setting: next, `CN1C(=O)N(c2ccc(-c3cn(C)c4ncnc(N)c34)c(F)c2)CC1c1cc(F)c(F)cc1F` (single isomer, unassigned) [Example 158, 1-(4-(4-amino-7-methyl-7H-pyrrolo[2,3-d]pyrimidin-5-yl)-3-fluorophenyl)-3-methyl-4-(2,4,5-trifluorophenyl)imidazolidin-2-one]: less than 100 nM; `CN1C(=O)N(c2ccc(-c3cn(C)c4ncnc(N)c34)c(F)c2)CC1c1cc(F)cc(F)c1` (single isomer, unassigned) [Example 100, 1-(4-(4-amino-7-methyl-7H-pyrrolo[2,3-d]pyrimidin-5-yl)-3-fluorophenyl)-4-(3,5-difluorophenyl)-3-methylimidazolidin-2-one]: less than 100 nM; `CN1C(=O)N(c2ccc(-c3cn(C4CC4)c4ncnc(N)c34)c(F)c2)CC1c1cccc(Cl)c1` (single isomer, unassigned) [Example 153, 1-(4-(4-amino-7-cyclopropyl-7H-pyrrolo[2,3-d]pyrimidin-5-yl)-3-fluorophenyl)-4-(3-chlorophenyl)-3-methylimidazolidin-2-one]: 100 to 1000 nM.
Same read-out and setting: in the case of `COc1cccc(C2CN(c3ccc(-c4cn(C)c5ncnc(N)c45)c(F)c3)C(=O)N2C)c1` (single isomer, unassigned) [Example 103, 1-(4-(4-amino-7-methyl-7H-pyrrolo[2,3-d]pyrimidin-5-yl)-3-fluorophenyl)-4-(3-methoxyphenyl)-3-methylimidazolidin-2-one] it was less than 100 nM; in that of `CN1C(=O)N(c2ccc(-c3cn(C)c4ncnc(N)c34)c(F)c2)CC1c1cc(F)ccc1F` (centres unmarked) [Example 18, 1-(4-(4-amino-7-methyl-7H-pyrrolo[2,3-d]pyrimidin-5-yl)-3-fluorophenyl)-4-(2,5-difluorophenyl)-3-methylimidazolidin-2-one], 100 to 1000 nM.
`CCN1C(=O)N(c2ccc(-c3cn(C)c4ncnc(N)c34)c(F)c2)CC1c1cc(F)ccc1F` (single isomer, unassigned) [Example 3, 1-(4-(4-amino-7-methyl-7H-pyrrolo[2,3-d]pyrimidin-5-yl)-3-fluorophenyl)-4-(2,5-difluorophenyl)-3-ethylimidazolidin-2-one]: the IC50 fell in the range of 100 to 1000 nM.
Turning to `CN1C(=O)N(c2ccc(-c3cn(C)c4ncnc(N)c34)c(Cl)c2)CC1c1cc(F)cc(F)c1` (single isomer, unassigned) [Example 127, 1-(4-(4-amino-7-methyl-7H-pyrrolo[2,3-d]pyrimidin-5-yl)-3-chlorophenyl)-4-(3,5-difluorophenyl)-3-methylimidazolidin-2-one], the IC50 is less than 100 nM.
On the same count and under the same terms, in the case of `CC(C)n1cc(-c2ccc(N3CC(c4ccc(F)cc4F)N(C)C3=O)cc2F)c2c(N)ncnc21` (centres unmarked) [Example 92, 1-(4-(4-amino-7-isopropyl-7H-pyrrolo[2,3-d]pyrimidin-5-yl)-3-fluorophenyl)-4-(2,4-difluorophenyl)-3-methylimidazolidin-2-one] it was 100 to 1000 nM.
